# Target: T1, rat mGluR5 receptors (Rattus norvegicus, UniProt P31424)
# T1 construct: rat cerebro-cortical membrane preparation was used; from tissue; host or cells: rat cerebral cortex membranes
# Assay: mGluR5 receptor binding test, rat cerebro-cortical membrane preparation, [3H]-M-MPEP
# Conditions: affinity for rat mGluR5 receptors; [3H]-M-MPEP (2 nM) radioligand
# Procedure: The mGluR5 receptor binding was determined according to the modified method of Gasparini et. al. (Bioorg. Med. Chem. Lett., 2000, 12, 407). Based on the high homology between the human and rat mGluR5 receptors, rat cerebro-cortical membrane preparation was used to determine the binding characteristics of the reference compounds and novel compounds to the rat mGluR5. The A18 cell line expressing hmGluR5a (purchased from Euroscreen) was used to determine binding characteristics of the chemical compounds to the human mGluR5a receptor. [^3H]-M-MPEP (2 nM) was used as radioligand. The nonspecific binding was determined in the presence of 10 μM M-MPEP.
# T1 sequence (P31424 21-1203): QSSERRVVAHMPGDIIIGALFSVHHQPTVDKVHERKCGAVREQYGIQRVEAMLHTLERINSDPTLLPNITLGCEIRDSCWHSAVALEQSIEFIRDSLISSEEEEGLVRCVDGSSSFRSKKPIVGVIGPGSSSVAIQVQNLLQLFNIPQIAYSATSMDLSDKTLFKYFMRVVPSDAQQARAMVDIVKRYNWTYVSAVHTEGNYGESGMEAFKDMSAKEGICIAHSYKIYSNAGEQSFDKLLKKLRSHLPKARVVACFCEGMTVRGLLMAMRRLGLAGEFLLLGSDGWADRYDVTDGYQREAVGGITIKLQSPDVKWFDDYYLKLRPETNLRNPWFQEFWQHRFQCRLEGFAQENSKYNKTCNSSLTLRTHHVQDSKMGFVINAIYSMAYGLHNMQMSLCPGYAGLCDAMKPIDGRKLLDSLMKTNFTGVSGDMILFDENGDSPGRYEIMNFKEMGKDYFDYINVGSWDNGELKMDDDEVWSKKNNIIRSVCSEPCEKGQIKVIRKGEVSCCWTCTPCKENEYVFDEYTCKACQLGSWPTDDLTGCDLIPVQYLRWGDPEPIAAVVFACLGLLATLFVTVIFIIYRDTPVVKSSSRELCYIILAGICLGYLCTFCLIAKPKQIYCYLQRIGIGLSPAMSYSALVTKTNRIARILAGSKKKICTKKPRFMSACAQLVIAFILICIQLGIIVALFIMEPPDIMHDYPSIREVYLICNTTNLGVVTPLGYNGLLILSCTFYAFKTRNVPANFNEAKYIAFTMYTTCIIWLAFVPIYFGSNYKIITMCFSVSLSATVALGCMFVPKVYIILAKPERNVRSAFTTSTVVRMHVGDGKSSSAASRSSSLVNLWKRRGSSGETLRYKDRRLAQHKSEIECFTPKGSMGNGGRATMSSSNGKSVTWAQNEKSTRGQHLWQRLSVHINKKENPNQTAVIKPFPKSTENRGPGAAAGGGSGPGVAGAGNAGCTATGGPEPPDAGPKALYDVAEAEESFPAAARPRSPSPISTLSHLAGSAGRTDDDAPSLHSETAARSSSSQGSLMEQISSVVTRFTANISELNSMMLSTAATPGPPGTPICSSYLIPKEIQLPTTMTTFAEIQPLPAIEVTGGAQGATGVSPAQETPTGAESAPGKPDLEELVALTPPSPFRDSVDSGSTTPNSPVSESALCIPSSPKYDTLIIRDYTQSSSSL
row,Ki [nM],SMILES
1,> 500,Cc1ccc2ncc(S(=O)(=O)c3ccc(F)cc3)c(N3CCOCC3)c2c1 [Compound 257]
2,> 500,Cc1cc(C)cc(S(=O)(=O)c2cnc3ccc(Cl)cc3c2N2CCC(C)CC2)c1 [Compound 224]
3,> 500,COc1ccc2ncc(S(=O)(=O)c3ccc(Cl)c(Cl)c3)c(N3CCOCC3)c2c1 [Compound 278]
4,200 to 500,Cc1ccc2ncc(S(=O)(=O)c3cc(F)cc(F)c3)c(N3CCC(C)CC3)c2c1 [Compound 154]
5,200 to 500,Cc1ccc(S(=O)(=O)c2cnc3cc(F)ccc3c2N2CCOCC2)cc1F [Compound 309]
6,> 500,COc1ccc(S(=O)(=O)c2cnc3cc(F)ccc3c2N2CCOCC2)cc1 [Compound 313]
7,200 to 500,Cc1ccc2ncc(S(=O)(=O)c3cc(Cl)cc(Cl)c3)c(N3CCC(C)CC3)c2c1 [Compound 153]
8,200 to 500,COc1ccc2ncc(S(=O)(=O)c3cccc(F)c3)c(N3CCC(C)CC3)c2c1 [Compound 243]
9,200 to 500,COc1ccc2ncc(S(=O)(=O)c3ccccc3)c(N3CCOCC3)c2c1 [Compound 269]
10,200 to 500,COc1ccc2ncc(S(=O)(=O)c3ccc(C)c(C)c3)c(N3CCC(C)CC3)c2c1 [Compound 250]
11,> 500,Cc1ccc2ncc(S(=O)(=O)c3cc(F)cc(F)c3)c(N3CCOCC3)c2c1 [Compound 255]
12,> 500,COc1cccc(S(=O)(=O)c2cnc3ccc(F)cc3c2N2CCOCC2)c1 [Compound 283]
13,< 200,CC1CCN(c2c(S(=O)(=O)c3ccc(F)cc3)cnc3ccc(F)cc23)CC1 [Compound 141]
14,< 200,O=S(=O)(c1ccccc1)c1cnc2ccc(F)cc2c1N1CCOCC1 [Compound 279]
15,200 to 500,COc1cccc(S(=O)(=O)c2cnc3cc(F)ccc3c2N2CCOCC2)c1 [Compound 306]
16,> 500,Cc1ccc2ncc(S(=O)(=O)c3cccc(F)c3)c(N3CCOCC3)c2c1 [Compound 259]
17,200 to 500,Cc1ccc2ncc(S(=O)(=O)c3ccc(C#N)cc3)c(N3CCC(C)CC3)c2c1 [Compound 166]
18,200 to 500,O=S(=O)(c1cc(F)cc(F)c1)c1cnc2c(F)cccc2c1N1CCOCC1 [Compound 336]
19,200 to 500,CC1CCN(c2c(S(=O)(=O)c3cc(Cl)cc(Cl)c3)cnc3ccc(F)cc23)CC1 [Compound 138]
20,200 to 500,O=S(=O)(c1ccc(F)cc1)c1cnc2cc(Cl)ccc2c1N1CCC(CO)CC1 [Compound 350]
21,200 to 500,Cc1ccc(S(=O)(=O)c2cnc3ccc(Cl)cc3c2N2CCOCC2)cc1Cl [Compound 300]

row,Ki [nM],SMILES
1,< 200,Cc1ccc(S(=O)(=O)c2cnc3cc(F)ccc3c2N2CCC(C)CC2)cc1F [Compound 178]
2,< 200,Cc1ccc(S(=O)(=O)c2cnc3ccc(F)cc3c2N2CCC(C)CC2)cc1C [Compound 146]
3,< 200,CC1CCN(c2c(S(=O)(=O)c3cc(Cl)cc(Cl)c3)cnc3cc(F)ccc23)CC1 [Compound 177]
4,< 200,Cc1ccc(S(=O)(=O)c2cnc3ccc(Cl)cc3c2N2CCC(C)CC2)cc1C [Compound 220]
5,< 200,O=S(=O)(c1ccc(Cl)c(Cl)c1)c1cnc2cc(Cl)ccc2c1N1CCOCC1 [Compound 332]
6,200 to 500,COc1ccc(S(=O)(=O)c2cnc3c(F)cccc3c2N2CCC(C)CC2)cc1 [Compound 229]
7,200 to 500,CC1CCN(c2c(S(=O)(=O)c3ccc(F)c(F)c3)cnc3ccc(Cl)cc23)CC1 [Compound 222]
8,< 200,CC1CCN(c2c(S(=O)(=O)c3ccc(F)c(Cl)c3)cnc3cc(Cl)ccc23)CC1 [Compound 207]
9,200 to 500,O=S(=O)(c1ccc(Cl)cc1)c1cnc2cc(Cl)ccc2c1N1CCOCC1 [Compound 324]
10,< 200,CC1CCN(c2c(S(=O)(=O)c3cccc(C#N)c3)cnc3ccc(F)cc23)CC1 [Compound 140]
11,> 500,COc1ccc(S(=O)(=O)c2cnc3ccc(Cl)cc3c2N2CCOCC2)cc1Cl [Compound 301]
12,< 200,Cc1ccc2ncc(S(=O)(=O)c3cccc(F)c3)c(N3CCC(C)CC3)c2c1 [Compound 159]
13,200 to 500,COc1ccc(S(=O)(=O)c2cnc3cc(Cl)ccc3c2N2CCC(C)CC2)cc1 [Compound 193]
14,< 200,Cc1cc(C)cc(S(=O)(=O)c2cnc3ccc(F)cc3c2N2CCC(C)CC2)c1 [Compound 151]
15,< 200,Cc1ccc2ncc(S(=O)(=O)c3ccc(Cl)c(Cl)c3)c(N3CCC(C)CC3)c2c1 [Compound 164]
16,> 500,Cc1ccc2ncc(S(=O)(=O)c3ccc(C#N)cc3)c(N3CCOCC3)c2c1 [Compound 265]
17,< 200,COc1ccc2ncc(S(=O)(=O)c3ccc(Cl)cc3)c(N3CCOCC3)c2c1 [Compound 270]
18,< 200,CC1CCN(c2c(S(=O)(=O)c3ccc(Cl)c(Cl)c3)cnc3c(F)cccc23)CC1 [Compound 236]
19,> 500,Cc1ccc2ncc(S(=O)(=O)c3cccc(C#N)c3)c(N3CCC(C)CC3)c2c1 [Compound 155]
20,< 200,CC1CCN(c2c(S(=O)(=O)c3ccc(F)c(F)c3)cnc3c(F)cccc23)CC1 [Compound 238]

# The next lines start with the compound.
row,SMILES,Ki [nM]
1,O=S(=O)(c1ccc(N2CCCCC2)cc1)c1cnc2ccc(Cl)cc2c1N1CCCCC1 [Compound 8],> 500
2,CCOC(=O)C1CCN(c2c(S(=O)(=O)c3ccc(C)cc3)cnc3ccc(CC)cc23)CC1 [Compound 52],> 500
3,COc1ccc(S(=O)(=O)c2cnc3ccc(OC)cc3c2N2CCC(C)CC2)cc1 [Compound 88],> 500
4,CCN(CC)c1c(S(=O)(=O)c2ccccc2)cnc2ccc(F)cc12 [Compound 124],> 500
5,COc1ccc2ncc(S(=O)(=O)c3ccccc3)c(N3CCN(c4cccc(C)c4C)CC3)c2c1 [Compound 69],> 500
6,COc1ccc2ncc(S(=O)(=O)c3ccc(C)cc3)c(NCc3ccccc3)c2c1 [Compound 87],> 500
7,O=S(=O)(c1ccccc1)c1cnc2ccccc2c1N1CCCCCC1 [Compound 89],200 to 500
8,COc1cccc(Nc2c(S(=O)(=O)c3ccc(C)cc3)cnc3ccccc23)c1 [Compound 113],> 500
9,Cc1ccc(S(=O)(=O)c2cnc3ccc(C)cc3c2N2CCCCC2)cc1 [Compound 41],> 500
10,CCOc1ccc2ncc(S(=O)(=O)c3ccc(C)cc3)c(N3CCN(c4ccccc4F)CC3)c2c1 [Compound 117],> 500
11,Cc1ccc(S(=O)(=O)c2cnc3ccccc3c2NCc2ccccc2)cc1 [Compound 77],< 200
12,Cc1ccc(S(=O)(=O)c2cnc3ccc(C)cc3c2N2CCN(c3ccccc3F)CC2)cc1 [Compound 73],> 500
13,CCc1ccc2ncc(S(=O)(=O)c3ccc(OC)cc3)c(N3CCC(C)CC3)c2c1 [Compound 51],< 200
14,CCOC(=O)C1CCN(c2c(S(=O)(=O)c3ccc(C)cc3)cnc3ccc(F)cc23)CC1 [Compound 55],> 500
15,COc1cc2ncc(S(=O)(=O)c3ccccc3)c(N3CCOCC3)c2cc1OC [Compound 7],> 500
16,CC1CCN(c2c(S(=O)(=O)c3ccccc3)cnc3ccc(F)cc23)CC1 [Compound 136],> 500
17,CCN1CCN(c2c(S(=O)(=O)c3ccc(Cl)cc3)cnc3ccc(C)cc23)CC1 [Compound 62],> 500
18,Cc1ccc2ncc(S(=O)(=O)c3ccccc3)c(N3CCC(C)CC3)c2c1 [Compound 49],> 500
19,Cc1ccc2ncc(S(=O)(=O)c3ccccc3)c(N3CCN(Cc4ccccc4)CC3)c2c1 [Compound 90],> 500

row,SMILES,Ki [nM]
1,O=S(=O)(c1ccccc1)c1cnc2cc3c(cc2c1N1CCCC1)OCCO3 [Compound 82],> 500
2,CCc1ccc2ncc(S(=O)(=O)c3ccc(Cl)cc3)c(N3CCOCC3)c2c1 [Compound 105],> 500
3,CCOc1ccc2ncc(S(=O)(=O)c3ccc(C)cc3)c(N3CCCCCC3)c2c1 [Compound 119],> 500
4,"Cc1ccc(S(=O)(=O)c2cnc3ccccc3c2N2CCOCC2)cc1C [Compound 1, 3-(3,4-Dimethyl-benzenesulfonyl)-4-(morpholin-4-yl)-quinoline]",< 200
5,O=S(=O)(c1ccc(Cl)cc1)c1cnc2ccccc2c1N1CCN(Cc2ccccc2)CC1 [Compound 79],200 to 500
6,O=S(=O)(c1ccccc1)c1cnc2cc3c(cc2c1N1CCCCCC1)OCCO3 [Compound 95],> 500
7,COc1ccc2ncc(S(=O)(=O)c3ccc(C)cc3)c(N3CCC(C)CC3)c2c1 [Compound 50],> 500
8,CCN(CC)c1c(S(=O)(=O)c2ccc(Cl)cc2)cnc2ccc(C)cc12 [Compound 9],< 200
9,CCc1ccc2ncc(S(=O)(=O)c3ccc(Cl)cc3)c(N(CC)CC)c2c1 [Compound 84],> 500
10,COc1ccc2ncc(S(=O)(=O)c3ccccc3)c(N3CCN(C)CC3)c2c1 [Compound 128],> 500
11,COc1ccc2ncc(S(=O)(=O)c3ccc(C)cc3)c(NCc3ccc(F)cc3)c2c1 [Compound 103],> 500
12,CCOC(=O)C1CCCN(c2c(S(=O)(=O)c3ccc(C)cc3)cnc3ccccc23)C1 (stereo not shown) [Compound 56],> 500
13,COc1ccccc1N1CCN(c2c(S(=O)(=O)c3ccc(C)cc3)cnc3ccccc23)CC1 [Compound 74],> 500
14,CCOC(=O)N1CCN(c2c(S(=O)(=O)c3ccc(C)cc3)cnc3ccc(C)cc23)CC1 [Compound 132],> 500
15,CCOc1ccc2ncc(S(=O)(=O)c3ccc(OC)cc3)c(N3CCOCC3)c2c1 [Compound 125],> 500
16,CCc1ccc2ncc(S(=O)(=O)c3ccc(OC)cc3)c(N3CCCCC3)c2c1 [Compound 134],> 500
17,O=S(=O)(c1ccc(Cl)cc1)c1cnc2ccccc2c1N1CCCCC1 [Compound 43],> 500
18,Cc1ccc(S(=O)(=O)c2cnc3ccc(C)cc3c2N2CCC(C(N)=O)CC2)cc1 [Compound 59],> 500
19,CC1CCN(c2c(S(=O)(=O)c3ccccc3)cnc3ccccc23)CC1 [Compound 47],< 200

# — patent US20090270371A1, “QUINOLINE DERIVATIVES USEFUL IN THE TREATMENT OF MGLUR5 RECEPTOR-MEDIATED DISORDERS” (priority 2005, published 2009)
